# From article PMC10971832, “New Phenol Derivatives from the Haima Cold Seep-Derived Fungus Aspergillus subversicolor CYH-17” (Marine Drugs, 2024)
# Tested on: Staphylococcus aureus ATCC 29213
# Experiment: Antibacterial assay (MIC), S. aureus
# Format: cell-based
# Details: ATCC29213, Table S32, positive control ciprofloxacin
# Text: (§1) The bacteria Vibrio alginolyticus XSBZ14, Enterococcus faecalis ATCC 29212, Acinetobacter baumannii ATCC 19606, Escherichia coli ATCC 25922, Bacillus subtilis BS01, Klebsiella pneumoniae ATCC 13883, Exiguobacterium profundum Staphylococcus aureus ATCC 29213 and MRSA 107352 were used to measure antibacterial activity. The procedures of the antibacterial test were the same as Zhang. Ciprofloxacin was used as the positive control.
row,MIC [µM],Compound
1,25,"Cc1cc(O)cc2oc3cc(O)cc(C)c3c12 [Compound 10, 3,7-dihydroxy-1,9-dimethyldibenzofuran]"
2,> 200,"CCC(C)C=C(C)C=CC(=O)Cc1cc(O)c(C)c(O)c1C(=O)O (stereo not shown) [Compound 1, subversin A]"
3,0.8,"O=C(O)c1cn(C2CC2)c2cc(N3CCNCC3)c(F)cc2c1=O [ciprofloxacin, Ciprofloxacin, reference compound]"
4,> 200,"COc1c(O)cc(C)cc1Oc1cc(C)cc(O)c1 [Compound 11, 2-methoxyl cordyol C]"

# Tested on: Exiguobacterium profundum
# Experiment: Antibacterial assay (MIC), E. profundum
# Format: cell-based
# Details: Table S32, positive control ciprofloxacin
# Text: as §1
row,MIC [µM],Compound
1,25,"Cc1cc(O)cc2oc3cc(O)cc(C)c3c12 [Compound 10, 3,7-dihydroxy-1,9-dimethyldibenzofuran]"
2,100,"CCC(C)C=C(C)C=CC(=O)Cc1cc(O)c(C)c(O)c1C(=O)O (stereo not shown) [Compound 1, subversin A]"
3,0.2,"O=C(O)c1cn(C2CC2)c2cc(N3CCNCC3)c(F)cc2c1=O [ciprofloxacin, Ciprofloxacin, reference compound]"
4,100,"COc1c(O)cc(C)cc1Oc1cc(C)cc(O)c1 [Compound 11, 2-methoxyl cordyol C]"

# Tested on: Enterococcus faecalis ATCC 29212
# Experiment: Antibacterial assay (MIC), E. faecalis
# Format: cell-based
# Details: ATCC29212, Table S32, positive control ciprofloxacin
# Text: as §1
row,MIC [µM],Compound
1,25,"Cc1cc(O)cc2oc3cc(O)cc(C)c3c12 [Compound 10, 3,7-dihydroxy-1,9-dimethyldibenzofuran]"
2,> 200,"CCC(C)C=C(C)C=CC(=O)Cc1cc(O)c(C)c(O)c1C(=O)O (stereo not shown) [Compound 1, subversin A]"
3,0.8,"O=C(O)c1cn(C2CC2)c2cc(N3CCNCC3)c(F)cc2c1=O [ciprofloxacin, Ciprofloxacin, reference compound]"
4,> 200,"COc1c(O)cc(C)cc1Oc1cc(C)cc(O)c1 [Compound 11, 2-methoxyl cordyol C]"

# Tested on: not listed separately
# Experiment: DPPH radical scavenging assay (antioxidant activity)
# Details: Table S33, positive control ascorbic acid
# Text: The procedures of the DPPH radical scavenging test were the same as Zhong. Ascorbic acid was used as the positive control.
row,IC50 [µM],Compound
1,48.9 ± 9.8,"Cc1cc(O)cc2oc3cc(O)cc(C)c3c12 [Compound 10, 3,7-dihydroxy-1,9-dimethyldibenzofuran]"
2,16.7 ± 0.7,"O=C1O[C@H]([C@@H](O)CO)C(O)=C1O [Ascorbic acid, reference compound]"

# Tested on: Bacillus subtilis BS01
# Experiment: Antibacterial assay (MIC), B. subtilis
# Format: cell-based
# Details: Table S32, positive control ciprofloxacin
# Text: as §1
row,MIC [µM],Compound
1,0.1,"Cc1cc(O)cc2oc3cc(O)cc(C)c3c12 [Compound 10, 3,7-dihydroxy-1,9-dimethyldibenzofuran]"
2,> 200,"CCC(C)C=C(C)C=CC(=O)Cc1cc(O)c(C)c(O)c1C(=O)O (stereo not shown) [Compound 1, subversin A]"
3,0.03,"O=C(O)c1cn(C2CC2)c2cc(N3CCNCC3)c(F)cc2c1=O [ciprofloxacin, Ciprofloxacin, reference compound]"
4,> 200,"COc1c(O)cc(C)cc1Oc1cc(C)cc(O)c1 [Compound 11, 2-methoxyl cordyol C]"

# Tested on: six bacteria (B. subtilis, E. profundum, E. faecalis, S. aureus, MRSA, A. baumannii)
# Experiment: Antibacterial assay, summary over the sensitive bacteria
# Format: cell-based
# Details: five Gram-positive bacteria (B. subtilis, E. profundum, E. faecalis, S. aureus and MRSA) and one Gram-negative bacterium (A. baumannii)
# Text: as §1
row,Compound,inhibitory activity against bacteria (in words)
1,"Cc1cc(O)cc2oc3cc(O)cc(C)c3c12 [Compound 10, 3,7-dihydroxy-1,9-dimethyldibenzofuran]",displayed inhibitory activity

# Same assay, conditions: range over six inhibited bacteria
row,MIC [µM],Compound
1,0.1 to 50,"Cc1cc(O)cc2oc3cc(O)cc(C)c3c12 [Compound 10, 3,7-dihydroxy-1,9-dimethyldibenzofuran]"

# Tested on: Acinetobacter baumannii ATCC 19606
# Experiment: Antibacterial assay (MIC), A. baumannii
# Format: cell-based
# Details: ATCC19606, Table S32, positive control ciprofloxacin
# Text: as §1
row,MIC [µM],Compound
1,50,"Cc1cc(O)cc2oc3cc(O)cc(C)c3c12 [Compound 10, 3,7-dihydroxy-1,9-dimethyldibenzofuran]"
2,> 200,"CCC(C)C=C(C)C=CC(=O)Cc1cc(O)c(C)c(O)c1C(=O)O (stereo not shown) [Compound 1, subversin A]"
3,0.4,"O=C(O)c1cn(C2CC2)c2cc(N3CCNCC3)c(F)cc2c1=O [ciprofloxacin, Ciprofloxacin, reference compound]"
4,> 200,"COc1c(O)cc(C)cc1Oc1cc(C)cc(O)c1 [Compound 11, 2-methoxyl cordyol C]"

# Tested on: MRSA 107352
# Experiment: Antibacterial assay (MIC), MRSA
# Format: cell-based
# Details: Staphylococcus aureus, Table S32, positive control ciprofloxacin
# Text: as §1
row,MIC [µM],Compound
1,12.5,"Cc1cc(O)cc2oc3cc(O)cc(C)c3c12 [Compound 10, 3,7-dihydroxy-1,9-dimethyldibenzofuran]"
2,> 200,"CCC(C)C=C(C)C=CC(=O)Cc1cc(O)c(C)c(O)c1C(=O)O (stereo not shown) [Compound 1, subversin A]"
3,1.6,"O=C(O)c1cn(C2CC2)c2cc(N3CCNCC3)c(F)cc2c1=O [ciprofloxacin, Ciprofloxacin, reference compound]"
4,> 200,"COc1c(O)cc(C)cc1Oc1cc(C)cc(O)c1 [Compound 11, 2-methoxyl cordyol C]"
